# Like-named read-outs stand apart in the source and are kept apart here.
# Legend:
# COVID-19 [1] = conditions: cited from earlier work
# COVID-19 [2] = conditions: at five days of therapy; cited from earlier work
# [3] = in vivo; cited from earlier work
# TMPRSS2 [4] = conditions: in men; cited from earlier work
# [5] = test system: angiotensin converting enzyme 2 (ACE2); conditions: in men; cited from earlier work
# COVID-19 [6] = conditions: men with diagnosis of AGA, outpatient setting; cited from earlier work
# COVID-19 [7] = conditions: cited from earlier work; remark: listed apart in the source
# TMPRSS2 [8] = conditions: cited from earlier work
# COVID-19 [9] = conditions: inventors' reading of Welén et al.; the authors report no evidence of benefit; cited from earlier work
# COVID-19 [10] = experiment: Clinical trial of proxalutamide in hospitalized COVID-19 patients in Brazil (NCT04728802); format: in vivo, human; conditions: initiated in patients that don't require supplemental O2
# COVID-19 [11] = conditions: men, proxalutamide 200 mg for up to seven days; cited from earlier work
# COVID-19 [12] = conditions: cited from earlier work; remark: listed apart in the source
# androgen receptor = molecular target: T1, androgen receptor (Homo sapiens, UniProt P10275); conditions: clinical evidence; cited from earlier work
# T1 sequence (P10275 1-920): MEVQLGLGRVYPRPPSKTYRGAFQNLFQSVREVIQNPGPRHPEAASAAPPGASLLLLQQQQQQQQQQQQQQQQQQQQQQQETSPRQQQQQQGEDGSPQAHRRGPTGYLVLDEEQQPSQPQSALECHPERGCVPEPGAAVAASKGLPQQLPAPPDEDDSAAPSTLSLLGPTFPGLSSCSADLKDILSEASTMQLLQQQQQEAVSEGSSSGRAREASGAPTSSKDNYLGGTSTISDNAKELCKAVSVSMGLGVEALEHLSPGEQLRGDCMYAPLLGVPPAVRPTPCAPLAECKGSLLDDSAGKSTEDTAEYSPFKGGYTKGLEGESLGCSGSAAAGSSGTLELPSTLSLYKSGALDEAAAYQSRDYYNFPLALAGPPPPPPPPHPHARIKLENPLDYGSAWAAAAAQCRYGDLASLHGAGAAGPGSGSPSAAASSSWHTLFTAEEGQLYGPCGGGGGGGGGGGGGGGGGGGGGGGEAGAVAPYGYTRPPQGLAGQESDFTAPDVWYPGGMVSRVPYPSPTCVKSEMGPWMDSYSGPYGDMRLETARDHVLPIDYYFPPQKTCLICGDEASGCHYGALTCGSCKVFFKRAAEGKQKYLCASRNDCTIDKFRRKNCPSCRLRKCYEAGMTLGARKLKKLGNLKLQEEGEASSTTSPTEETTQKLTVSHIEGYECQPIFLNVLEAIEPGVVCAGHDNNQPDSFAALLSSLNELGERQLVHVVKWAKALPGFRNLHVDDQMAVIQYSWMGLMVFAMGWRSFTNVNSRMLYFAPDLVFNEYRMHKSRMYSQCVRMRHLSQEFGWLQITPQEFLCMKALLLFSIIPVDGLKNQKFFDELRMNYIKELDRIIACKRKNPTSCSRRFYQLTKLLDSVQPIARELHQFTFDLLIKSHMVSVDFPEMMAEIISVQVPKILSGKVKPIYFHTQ
# ACE2 = conditions: cited from earlier work
# COVID-19 [13] = conditions: patients with severe lung involvement; cited from earlier work
# COVID-19 [14] = conditions: single case; case report later retracted; cited from earlier work
# sepsis = conditions: fecal peritonitis model; cited from earlier work
smiles,measurement,setting,value
C[C@]12CCC(=O)C=C1C=C[C@@H]1[C@@H]2CC[C@@]2(C)[C@H]1CC[C@@]2(O)CCC(=O)O [Potassium canrenoate],all-cause mortality,COVID-19 [1]; severe COVID patients,proven to reduce all-cause mortality
CC(C)(C)NC(=O)[C@H]1CC[C@H]2[C@@H]3CC[C@H]4NC(=O)C=C[C@]4(C)[C@H]3CC[C@]12C [Finasteride],peripheral capillary oxygen saturation,COVID-19 [2],clinically and statistically significant improvement
same,half-life,[3],six
CC(=O)S[C@@H]1CC2=CC(=O)CC[C@]2(C)[C@H]2CC[C@@]3(C)[C@@H](CC[C@@]34CCC(=O)O4)[C@H]12 [spironolactone],expression of TMPRSS2,TMPRSS2 [4],decrease the expression
same,expression of ACE2,[5],decrease the expression
C[C@]12C=CC(=O)N[C@@H]1CC[C@@H]1[C@@H]2CC[C@]2(C)[C@@H](C(=O)Nc3cc(C(F)(F)F)ccc3C(F)(F)F)CC[C@@H]12 [dutasteride],expression of TMPRSS2,TMPRSS2 [4],decrease the expression
same,expression of ACE2,[5],decrease the expression
same,symptomatic COVID-19 disease,COVID-19 [6],less symptomatic COVID-19 disease
same,half-life,[3],five
C[C@]12CCC(=O)C=C1C=C[C@@H]1[C@@H]2CC[C@@]2(C)[C@H]1CC[C@@]21CCC(=O)O1 [Canrenone],fatalities,COVID-19 [1]; intensive care observational series of cases with hypertension or hypokalemia,associated with reduced fatalities
CNC(=O)c1ccc(N2C(=S)N(c3ccc(C#N)c(C(F)(F)F)c3)C(=O)C2(C)C)cc1F [enzalutamide],"mortality, subgroup analysis","COVID-19 [7]; human, in vivo",significantly reduce mortality
same,TMPRSS2 regulation,TMPRSS2 [8],significantly downregulated TMPRSS2
same,effect on hospitalized COVID-19 patients,COVID-19 [9],positive effects
same,half-life,[3],140 h
CC1(C)C(=O)N(c2ccc(C#N)c(C(F)(F)F)c2F)C(=S)N1c1ccc(CCCc2ncco2)nc1 [proxalutamide],survival,COVID-19 [10],no difference in survival
same,30-day hospitalization rate,COVID-19 [11],about 2%
same,reduction of the risk of hospitalization compared to usual care,COVID-19 [11],more than 90%
same,mortality in COVID-19 patients,"COVID-19 [12]; data from Brazil, both arms using corticosteroids",dramatic impact of proxalutamide in reducing mortality
same,lung opacities compared to placebo,COVID-19 [12]; hospitalized COVID-19 patients,improves lung opacities
same,androgen receptor expression and activity,androgen receptor,lowers androgen receptor expression and activity
same,expression of ACE2,ACE2,lowers the expression of ACE2
same,"mortality, subgroup analysis",COVID-19 [7]; meta-analysis of RCTs,significantly reduce mortality
same,benefit vs standard-of-care which includes steroids,COVID-19 [13],showed benefit
same,symptom resolution and laboratory improvement,COVID-19 [14],striking symptom resolution and laboratory improvement within twenty-four hours
COCCCC/C(=N\OCCN)c1ccc(C(F)(F)F)cc1 [fluvoxamine],anti-sepsis activity,sepsis,anti-sepsis activity

# Source: patent publication US20250295634A1, “USE OF ANTIANDROGENS TO TREAT SEPSIS” (Rhode Island Hospital, priority 2024, published 2025)
